Patent US20190211020A1 (Agency for Science, Technology and Research, priority 2012, published 2019)
Entries after “also recorded” stand apart in the source; their conditions may differ. Where two headings read alike, the source gives them in different places.

How the values were obtained:
[1] = test system: beta-catenin transcriptional activity; details: background; cited from earlier work
[2] = test system: patient-derived BC cells in NSG mice; details: 40 mg/kg/d CGP or 5 mg/kg/d dasatinib for three weeks; read at 16 weeks; cited from earlier work
[3] = test system: active nuclear beta-catenin in BC GMPs; details: background; cited from earlier work
BC CD34+ CML cells = details: background; cited from earlier work
[4] = test system: eIF4G levels in brain sections from Nlgn3 knock-out mice; assay: Immunoblot of eIF4G in brain slices of Nlgn3 knock-out mice; design: species or system mouse; details: 40 μM CGP57380 or 50 nM ETC7168
Method: (§1) For biochemical analyses mice were sacrificed by CO2 inhalation, the cerebellum dissected and rapidly placed in a vibratome chamber and sectioned at 300 μm in cold oxygenated aCSF (in mM: 125 NaCl, 2.5 KCl, 1 MgCl2, 2 CaCl2, 1.25 NaH2PO4, 20 Glucose, 26 NaHCO3, 95% O2/5% CO2). Slices obtained were maintained at 33° C. in oxygenated aCSF and treated with 40 μM CGP57380 or 50 nM ETC7168 for 45 mins and tissues were subsequently snap frozen in liquid nitrogen. Tissues were lysed in 25 mM Tris-HCl, 150 mM NaCl, 1% Triton, 0.2% SDS, 5 mM EDTA, 2 mM DTT, 1 mM NaF, 1 mM Na3VO4 containing protease inhibitor cocktail. The soluble fractions were analyzed by immunoblotting with primary antibodies for 24 hrs at 4° C. followed by detection with secondary antibodies for enhanced chemoluminescent detection. Impact of MNK inhibitors on autism-related behavior was tested in a knock-out mouse model for autism. Nlgn3 knock-out mouse model a human mutation identified in patients with autism^73-74. Compounds were applied in DMSO using intraperitoneal injection in adult male mice (2-4 months of age). Two injections were performed, the first 30 h and a second one 5 h before testing. Behavioral testing was performed using a well-accepted test for autism that consists of quantitative analysis of ultrasonic vocalizations emitted by male mice exposed to females in estrous^75. The apparatus consisted of an arena (40 cm×20 cm) surrounded by 30-cm-high walls made of grey plastic and equipped with a microphone and a video camera. Prior to testing, the estrous cycle of each female mouse was assessed and only females in estrous were kept for testing. Male mice were acclimatized for 3 min in the chamber. Subsequently a female in estrous was introduced in the arena, and ultrasonic vocalizations were recorded for 3 min using the Avisoft system (Avisoft Bioacoustics) with a frequency bandwidth of 30 kHz to 100 kHz. The number and length of ultrasonic vocalizations were quantified. All animal experiments were approved by the cantonal veterinary office Basel-Stadt, Switzerland.

normal CD34+ cells = details: background; cited from earlier work
[5] = test system: normal cord blood CD34+ cells; details: background; cited from earlier work
[6] = test system: CD34+BC cells (including those carrying T315I mutation); details: background; cited from earlier work
[7] = test system: eIF4E phosphorylation in cerebellar neurons in brain sections; assay: Immunoblot of phospho-eIF4E in mouse cerebellar brain slices; details: 40 μM CGP57380 or 50 nM ETC7168 for 45 mins
Method: as §1, with “Impact of MNK inhibitors on autism-related behavior was tested in a knock-out mouse model for autism. Nlgn3 knock-out mouse model a human mutation identified in patients with autism^73-74. Compounds were applied in DMSO using intraperitoneal injection in adult male mice (2-4 months of age). Two injections were performed, the first 30 h and a second one 5 h before testing.” left out, “The apparatus consisted of an arena (40 cm×20 cm) surrounded by 30-cm-high walls made of grey plastic and equipped with a microphone and a video camera.” left out, “Male mice were acclimatized for 3 min in the chamber.” left out, “All animal experiments were approved by the cantonal veterinary office Basel-Stadt, Switzerland.” left out

[8] = test system: eIF4E phosphorylation in BC GMPs; details: background; cited from earlier work
[9] = test system: TNF production by macrophage; details: stimulation with TLR agonists; background; cited from earlier work
MV-4-11 (leukemia) = assay: Cell cytotoxicity assay (CellTiter-Glo), MV-4-11; assay type: cell-based; details: Homo sapiens, cell viability
Method: (§2) Cancer cell lines, MV-4-11 (leukemia), P116.c139 (acute T cell leukemia) and D1.1 (acute T cell leukemia), were purchased from ATCC and cultured according to supplier's recommendations. K562 cells (myelogenous leukemia) over-expressing eIF4E, were also used for the cytotoxicity assay. For cells treated for 48 hours, 5000 cells were seeded in 70 μl of growth medium in black, flat-bottom 96-well plate. For cells treated for six days, 1000 cells were seeded in 70 μl of growth medium in black, flat-bottom 96-well plate. […] 50 μl of the diluted compounds was added to the cells and incubated at 37° C. in 5% CO2. After 48 hours or six days treatment, cell viability was determined by CellTiter-Glo Luminescent Cell Viability Assay (Promega, Madison, Wis.). 120 μl of the reagent was added to the cells and luminescence was measured using Tecan Safire Reader. Data was analysed with Graphpad Prism software and the figures represented indicate the half maximal inhibitory concentration (IC50). Error bars denote standard deviation (SD).

[10] = test system: MV-4-11, P116.c139 and D1.1 cell lines; assay: Cell cytotoxicity assay, the three test cell lines taken together; assay type: cell-based
Method: as §2

[11] = test system: eIF4E phosphorylation in K562 cells; assay: Western blot of eIF4E phosphorylation in K562 cells; assay type: cell-based; details: various concentrations, 24 h
Method: (§3) K562 cell line was obtained from the ATCC, and grown in RPMI supplemented with 10% FCS, L-glutamine, and penicillin/streptomycin.
(§4) Exponentially growing cells were plated at 2×10^5 cells/ml, and whole cell lysate processed for western blot analysis using antibodies recognizing eIF4E, phospho-eIF4E (Cell signaling Technology),

[12] = test system: D1.1 (acute T cell leukemia); assay: Cell cytotoxicity assay (CellTiter-Glo), D1.1; assay type: cell-based; details: T-cell, cell viability
Method: as §2

[13] = test system: nuclear active beta-catenin in BC-CML primary cells; assay: Immunofluorescence of nuclear active beta-catenin in BC-CML primary cells; assay type: cell-based, human
Description: Cord Blood (CB) samples were purchased from the Singapore Cord Blood bank. CML samples were the Singapore General Hospital after signed informed consent under local IRB-approved procedures. MNCs were obtained using Ficoll separation, and CD34^+ cells selected by immunomagnetic beads (Miltenyi Biotech, Germany).
Cells (1×10^5) were cytospun onto glass slides, fixed with 4% paraformaldehye, and stained with mouse monoclonal antibodies against activated β-catenin (clone 8E7, Millipore, UK), or rabbit monoclonal antibodies against phospho-eIF4E S209 (EP2151Y, Abcam, UK). Slides were then stained with either PE-conjugated anti-mouse or FITC-conjugated anti-rabbit antibodies. Images were obtained with the use of a fluorescence microscope (Olympus IX71S1F3) at 40× magnification.

[14] = test system: P116.c139 (acute T cell leukemia); assay: Cell cytotoxicity assay (CellTiter-Glo), P116.c139; assay type: cell-based; details: T-cell, cell viability
Method: as §2

[15] = test system: K562 cells (myelogenous leukemia) over-expressing eIF4E; assay: Cell cytotoxicity assay (CellTiter-Glo), K562; assay type: cell-based; details: for IC50: Homo sapiens, cell viability
Method: as §2

BCR-ABL = target: T1, BCR-ABL (Homo sapiens, UniProt P00519); assay: Western blot of CrK1 phosphorylation (BCR-ABL activity) in K562 cells; assay type: cell-based
T1 construct: host or cells: K562; the other entry of the earlier key: BCR (P11274, Breakpoint cluster region protein)
T1 sequence (P00519 with tags, fused parts or gaps): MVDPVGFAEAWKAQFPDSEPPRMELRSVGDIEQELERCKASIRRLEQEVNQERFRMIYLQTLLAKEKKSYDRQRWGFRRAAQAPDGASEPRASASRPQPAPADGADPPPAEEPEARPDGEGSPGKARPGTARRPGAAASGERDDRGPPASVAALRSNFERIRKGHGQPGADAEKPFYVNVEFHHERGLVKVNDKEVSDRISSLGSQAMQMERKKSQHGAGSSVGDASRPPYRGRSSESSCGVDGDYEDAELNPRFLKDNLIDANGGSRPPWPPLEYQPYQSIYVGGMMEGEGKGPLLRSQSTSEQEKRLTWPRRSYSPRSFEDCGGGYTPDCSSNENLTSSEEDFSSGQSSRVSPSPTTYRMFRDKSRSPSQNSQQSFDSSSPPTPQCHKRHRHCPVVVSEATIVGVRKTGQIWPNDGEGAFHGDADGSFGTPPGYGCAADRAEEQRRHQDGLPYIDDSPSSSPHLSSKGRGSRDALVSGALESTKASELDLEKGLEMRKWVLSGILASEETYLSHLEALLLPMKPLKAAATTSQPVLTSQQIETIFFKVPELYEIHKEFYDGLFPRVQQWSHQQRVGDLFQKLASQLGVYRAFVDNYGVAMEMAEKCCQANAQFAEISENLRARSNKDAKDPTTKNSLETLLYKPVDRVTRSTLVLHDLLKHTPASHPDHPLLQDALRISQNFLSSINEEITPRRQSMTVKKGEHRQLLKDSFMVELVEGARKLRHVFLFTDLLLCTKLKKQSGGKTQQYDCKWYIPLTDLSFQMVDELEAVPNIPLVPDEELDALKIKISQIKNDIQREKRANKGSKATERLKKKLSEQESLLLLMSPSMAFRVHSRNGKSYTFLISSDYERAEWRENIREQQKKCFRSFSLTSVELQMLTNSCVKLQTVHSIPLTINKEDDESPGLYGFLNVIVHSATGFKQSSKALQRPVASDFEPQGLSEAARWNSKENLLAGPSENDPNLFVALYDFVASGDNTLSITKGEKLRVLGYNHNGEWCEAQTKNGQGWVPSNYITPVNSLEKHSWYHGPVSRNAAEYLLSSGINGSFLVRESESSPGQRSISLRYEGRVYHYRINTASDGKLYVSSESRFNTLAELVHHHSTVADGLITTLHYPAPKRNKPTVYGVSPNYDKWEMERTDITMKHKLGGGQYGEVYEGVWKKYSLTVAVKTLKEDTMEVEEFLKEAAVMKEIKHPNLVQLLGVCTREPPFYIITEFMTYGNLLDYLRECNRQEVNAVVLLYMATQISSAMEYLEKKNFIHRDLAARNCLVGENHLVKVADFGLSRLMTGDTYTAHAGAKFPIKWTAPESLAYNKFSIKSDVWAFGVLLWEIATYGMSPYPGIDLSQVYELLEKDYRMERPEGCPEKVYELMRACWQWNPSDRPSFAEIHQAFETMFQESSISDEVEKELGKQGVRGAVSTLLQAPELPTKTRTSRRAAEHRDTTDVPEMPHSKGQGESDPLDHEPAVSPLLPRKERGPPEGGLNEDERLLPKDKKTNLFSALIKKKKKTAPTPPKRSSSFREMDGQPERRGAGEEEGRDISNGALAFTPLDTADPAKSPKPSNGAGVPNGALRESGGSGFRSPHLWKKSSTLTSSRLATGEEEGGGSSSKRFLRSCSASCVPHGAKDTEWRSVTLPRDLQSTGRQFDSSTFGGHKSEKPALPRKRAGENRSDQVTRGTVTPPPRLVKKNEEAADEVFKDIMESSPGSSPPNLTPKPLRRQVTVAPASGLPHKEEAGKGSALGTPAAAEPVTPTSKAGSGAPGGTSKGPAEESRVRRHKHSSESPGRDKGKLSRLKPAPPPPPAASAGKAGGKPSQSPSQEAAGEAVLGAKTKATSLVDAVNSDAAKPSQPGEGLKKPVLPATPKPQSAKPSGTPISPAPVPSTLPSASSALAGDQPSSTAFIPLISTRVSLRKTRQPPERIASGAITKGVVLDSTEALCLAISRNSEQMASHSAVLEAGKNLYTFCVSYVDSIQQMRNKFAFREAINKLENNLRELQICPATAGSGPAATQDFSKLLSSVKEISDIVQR
Method: as §3, §4

[16] = test system: eIF4E Ser209 phosphorylation in Hela cells; assay: MNK cell-based assay (AlphaScreen SureFire, eIF4E Ser209 phosphorylation); details: Homo sapiens; eIF4E Ser209 phosphorylation, Hela cells, 2 hours; read-out: IC50 Hela
How it was run: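 Hela cells (30,000/well) exposed to test compound in serum-free medium for 2 h at 37 °C, then lysed. Phospho-Ser209 eIF4E quantified by AlphaScreen SureFire; IC50 obtained by non-linear regression of signal versus log compound concentration.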

For CC[n+]1c(/C=C/N(C)c2ccccc2)n(-c2ccccc2)c2ccc(-c3nc4ccccc4s3)cc21.[I-] [AKT inhibitor IV], the “eIF4E-mediated increases in beta-catenin transcriptional activity” value [1] is listed as “prevented eIF4E-mediated increases in beta-catenin transcriptional activity”.
For Nc1ncnc2n[nH]c(Nc3ccc(F)cc3)c12 [CGP57380], the “serial transplantation of BC cells in NSG mice after in vivo treatment” value [2] is listed as “prevented BC cells from serially transplanting NSG mice”, the “accumulation of active nuclear beta-catenin in BC GMPs” value [3] is listed as “prevents accumulation of active nuclear beta-catenin” and the “ability of BC CD34+ CML cells to engraft NSG mice after in vitro treatment” value (BC CD34+ CML cells) is listed as “retarded their ability to engraft NSG mice”. For the same compound, the “eIF4G levels in brain sections from Nlgn3 knock-out mice” value [4] was “elevation in eIF4G levels; also recorded: elevated eIF4G levels”, the “ability of normal CD34+ cells to serially replate” value (normal CD34+ cells) was “not” and the “ability of normal cord blood CD34+ cells to engraft NSG mice after in vitro treatment” value [5] was “not”. The “ability of CD34+ BC cells to serially replate for more than 8 weeks in methylcellulose” value [6] was “impaired the ability”, the “eIF4E phosphorylation in cerebellar brain sections” value [7] was “inhibit eIF4E phosphorylation” and the “eIF4E phosphorylation in BC GMPs” value [8] was “inhibited eIF4E phosphorylation”. The “TNF production / release by macrophage” value [9] was “inhibited; also recorded: inhibits the release of TNF alpha”.
For CN1CCN(C(=O)c2ccc(-c3ccn4ncc(-c5ccc(C#N)cc5)c4n3)cc2)CC1 [Example 176, 4-(5-(4-(4-methylpiperazine-1-carbonyl)phenyl)pyrazolo[1,5-a]pyrimidin-3-yl)benzonitrile], the IC50 (MV-4-11 (leukemia); MV4-11, 144 h, 6 days, read-out: IC50 after 6 days of treatment, MV-4-11) was 400 nM, the IC50 (MV-4-11 (leukemia); MV4-11, 48 hours, read-out: IC50 after 48 hours of treatment, MV-4-11) was 1000 nM and the “relative cytotoxicity amongst the four compounds” value [10] was “most cytotoxic”. The IC50 ([10]; Homo sapiens, MV4-11, regardless of the treatment duration (48 hours or 6 days)) was at most 1000 nM, the “eIF4E phosphorylation in K562 (BC-CML cell line), Western blot” value [11] was “prevent eIF4E phosphorylation; also recorded: decrease in eIF4E phosphorylation” and the IC50 ([12]; 144 h, 6 days, read-out: IC50 after 6 days of treatment, D1.1) was 800 nM. The IC50 ([12]; 48 hours, read-out: IC50 after 48 hours of treatment, D1.1) was 1000 nM, the “nuclear active beta-catenin in BC-CML primary cells, immunofluorescence” value [13] was “decrease in nuclear beta-catenin accumulation” and the IC50 ([14]; 144 h, 6 days, read-out: IC50 after 6 days of treatment, P116.c139) was 100 nM. It also gave an IC50 ([14]; 48 hours, read-out: IC50 after 48 hours of treatment, P116.c139) of 400 nM, an IC50 ([15]; K562, 144 h, 6 days, read-out: IC50 after 6 days of treatment, K562) of 3.4 µM and an IC50 ([15]; K562, 48 hours, read-out: IC50 after 48 hours of treatment, K562) of 14.2 µM. For the same compound, the “change of IC50 when treatment duration was extended from 48 hours to 6 days, K562” value ([15]; K562 cells over-expressing eIF4E) was “reduced by more than half”, the “BCR-ABL activity (phosphorylation of CrK1) in K562 cells” value (BCR-ABL) was “decrease in BCR-ABL activity” and the IC50 [16] was under 1000 nM.
